The values below come from patent publication US20220289685A1, “ANTIMALARIAL HEXAHYDROPYRIMIDINE ANALOGUES” (UCB BIOPHARMA SRL, priority 2019, published 2022).

The pIC50 is the negative decadic logarithm of the IC50, by convention in mol/L. A higher pIC50 goes with a low IC50.

pIC50: −log10 of the molar value. Counter-ions that a name gives are not always drawn.

In this test the test system is Plasmodium falciparum 3D7 strain. Description: P. falciparum 3D7 asexual blood stage assay (SYBR green readout). The class given is cell-based. As to conditions: Plasmodium falciparum, 3D7, Erythrocyte, 72 h. The procedure, abridged:
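P. falciparum 3D7 in A+ erythrocytes (5% haematocrit, 0.5% parasitaemia) exposed 72 h at 37 °C under 1% O2/3% CO2 to 20-point 1.5-fold titrations, 50,000–15 nM in 0.5% DMSO. SYBR green lysis overnight, fluorescence 485/528 nm; normalized to mefloquine and DMSO, EC50 from biphasic two-site fit.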
`C[C@@H]1C[C@H](N2C(=N)N[C@](C)(c3cccc(NC(=O)c4cncc(C5CC5)c4)c3Cl)CC2=O)CCO1` (relative stereo) [Example 104, N-(2-Chloro-3-{(4S)-2-imino-4-methyl-1-[(2R*,4R*)-2-methyl-tetrahydropyran-4-yl]-6-oxo-hexahydropyrimidin-4-yl}phenyl)-5-cyclopropylpyridine-3-carboxamide hydrochloride] gave a pIC50 of 7.72. `C[C@@H]1C[C@H](N2C(=N)N[C@](C)(c3cccc(NC(=O)c4cccc(-n5ccnc5)c4)c3Cl)CC2=O)CCO1` (relative stereo) [Example 105, N-(2-Chloro-3-{(4S)-2-imino-4-methyl-1-[(2R*,4R*)-2-methyl-tetrahydropyran-4-yl]-6-oxo-hexahydropyrimidin-4-yl]phenyl)-3-(imidazol-1-yl)benzamide hydrochloride] gave a pIC50 of 7.36. On to `COc1ccc(C#N)cc1C(=O)Nc1cccc([C@]2(C)CC(=O)N([C@@H]3CCO[C@H](C)C3)C(=N)N2)c1Cl` (relative stereo) [Example 106, N-(2-Chloro-3-{(4S)-2-imino-4-methyl-1-[(2R*,4R*)-2-methyl-tetrahydropyran-4-yl]-6-oxo-hexahydropyrimidin-4-yl}phenyl)-5-cyano-2-methoxybenzamide hydrochloride], for which the pIC50 was 7.42. As for `COc1c(C#N)cccc1C(=O)Nc1cccc([C@]2(C)CC(=O)N([C@@H]3CCO[C@H](C)C3)C(=N)N2)c1Cl` (relative stereo) [Example 107, N-(2-Chloro-3-{(4S)-2-imino-4-methyl-1-[(2R*,4R*)-2-methyl-tetrahydropyran-4-yl]-6-oxo-hexahydropyrimidin-4-yl}phenyl)-3-cyano-2-methoxybenzamide hydrochloride], the figure is 7.57; as for `CC#Cc1cncc(C(=O)Nc2cccc([C@]3(C)CC(=O)N([C@@H]4CCO[C@H](C)C4)C(=N)N3)c2Cl)c1` (relative stereo) [Example 108, N-(2-Chloro-3-{(4S)-2-imino-4-methyl-1-[(2R*,4R*)-2-methyl-tetrahydropyran-4-yl]-6-oxo-hexahydropyrimidin-4-yl}phenyl)-5-(prop-1-ynyl)pyridine-3-carboxamide hydrochloride], 7.40. The compound `CC#Cc1cccc(C(=O)Nc2cccc([C@]3(C)CC(=O)N([C@@H]4CCO[C@H](C)C4)C(=N)N3)c2Cl)c1` (relative stereo) [Example 109, N-(2-Chloro-3-{(4S)-2-imino-4-methyl-1-[(2R*,4R*)-2-methyl-tetrahydropyran-4-yl]-6-oxo-hexahydropyrimidin-4-yl}phenyl)-3-(prop-1-ynyl)benzamide hydrochloride] had a pIC50 of 7.64.

In the case of `Cc1cn(-c2cccc(C(=O)Nc3cccc([C@]4(C)CC(=O)N([C@@H]5CCO[C@H](C)C5)C(=N)N4)c3Cl)c2)cn1` (relative stereo) [Example 110, N-(2-Chloro-3-{(4S)-2-imino-4-methyl-1-[(2R*,4R*)-2-methyl-tetrahydropyran-4-yl]-6-oxo-hexahydropyrimidin-4-yl}phenyl)-3-(4-methylimidazol-1-yl)-benzamide hydrochloride], the pIC50 is 6.54. Compared with the last compound, the pIC50 is 1.10 log units lower.

`Cc1nccc(C(F)(F)F)c1C(=O)Nc1cccc([C@]2(C)CC(=O)N([C@@H]3CCO[C@H](C)C3)C(=N)N2)c1Cl` (relative stereo) [Example 111, N-(2-Chloro-3-{(4S)-2-imino-4-methyl-1-[(2R*,4R*)-2-methyl-tetrahydropyran-4-yl]-6-oxo-hexahydropyrimidin-4-yl}phenyl)-2-methyl-4-(trifluoromethyl)-pyridine-3-carboxamide hydrochloride] gave a pIC50 of 6.38.
